Molecular target: T1, stearoyl-CoA desaturase (SCD) (Rattus norvegicus, UniProt P07308)
T1 construct: 0.032 mg/ml rat liver microsomes (total protein content); from tissue
T1 sequence (P07308 1-358): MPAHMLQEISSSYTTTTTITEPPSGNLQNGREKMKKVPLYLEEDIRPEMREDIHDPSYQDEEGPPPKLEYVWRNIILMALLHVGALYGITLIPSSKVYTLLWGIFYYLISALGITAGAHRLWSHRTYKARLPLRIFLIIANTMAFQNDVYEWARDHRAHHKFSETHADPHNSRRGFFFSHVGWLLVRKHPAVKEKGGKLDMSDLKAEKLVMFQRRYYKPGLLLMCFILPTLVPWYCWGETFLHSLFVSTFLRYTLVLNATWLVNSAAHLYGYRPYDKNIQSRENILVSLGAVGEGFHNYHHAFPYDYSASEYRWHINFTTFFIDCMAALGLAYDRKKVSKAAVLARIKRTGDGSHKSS
Assay: Tritium release screening assay for inhibition of stearoyl-CoA desaturase activity in rat liver microsomes
Type: biochemical, rat (Male Sprague-Dawley)
Details: [3H]-stearoyl-CoA, 20 min pre-incubation, 20 min reaction, 384- or 96-well format
Source text: Another measure of SCD activity was introduced by Talamo and Bloch in 1969 [Talamo & Bloch (1969) Anal. Biochem. 29, 300-304]. This method is based on the quantification of a second product of the desaturase reaction, i.e. the water molecule that is released in the desaturase reaction. The quantification is based on the use of a long chain acyl-CoA substrate, e.g. stearoyl-CoA, that is specifically labeled with tritium in positions 9 and 10 of the carbon chain such that the released water is also tritiated ([^3H]-H2O). The remaining [^3H]-stearoyl-CoA as well as the product [^3H]-oleyl-CoA must then be separated from the solution before the tritiated water content can be measured by means of liquid scintillation. Talamo and Bloch acid precipitated the long chain acyl-CoAs followed by filtration to achieve this separation, but this separation can also be achieved by means of centrifugation instead of filtration [Johnson & Guhr (1971) Lipids 6, 78-84]. An alternative procedure that involves precipitation by ethanol and activated charcoal followed by centrifugation has also been described [Shanklin and Somerville (1991) Proc. Natl. Acad. Sci. USA 88, 2510-2514]. Based on these studies it is clear that near perfect separation is required for optimal assay performance. When applying this assay it is important to recognize that the apparent desaturation rate is impacted by isotope effects as described by Johnson and Gurr in 1971 [Johnson & Guhr (1971) Lipids 6, 78-84]. Thus whereas the assay serves as an excellent measure of relative SCD activity it must be calibrated using other methods when absolute measures of enzyme activity are needed. The pros and cons of this assay have also been summarized in the literature [Gurr & Robinson (1972) Anal. Biochem. 47, 146-156]. An abundant source of stearoyl-CoA desaturase activity can be found in microsomal preparations from the liver of rats that have been subjected to a fasting-refeeding procedure on a low fat/high carbohydrate diet [reviewed in Ntambi (1999) J. Lipid Res. 40, 1549-1558]. However, microsomal preparations are not a pure source of SCD activity and this means that the added stearoyl-CoA substrate is subject also to other enzymatic processes. It is therefore essential to include reagents that allow regeneration of the stearoyl-CoA substrate as described by Bertram and Erwin [Bertram & Erwin (1981) J. Protozool. 8, 127-131].
The tritium release assay for the measurement of SCD activity is thus well documented in the literature. Descriptions on how these finding have been used to produce standard screening assays in 96-well plates are also available [Brownlie, Hayden, Attie, Ntambi, Gray-Keller, & Miyazaki (2001) WO 01/62954; Wu, Gallipoli, Gallagher, & Gardell (2004) WO 2004/04776]. […]

Molecule `Cc1nc2c(C(=O)NCC3CCCO3)cnn2c(C)c1Cc1cccc(Br)c1` (stereo not shown) [6-(3-bromobenzyl)-5,7-dimethyl-N-(tetrahydrofuran-2-ylmethyl)pyrazolo[1,5-a]pyrimidine-3-carboxamide] has an IC50 of 140 ± 67 nM.

In the case of `COCCNC(=O)c1cnn2c(C)c(Cc3ccccc3)c(C)nc12` [Example 1, 6-benzyl-N-(2-methoxyethyl)-5,7-dimethylpyrazolo[1,5-a]pyrimidine-3-carboxamide], the IC50 is reported as 1000 ± 400 nM.

In the case of `COc1cccc(Cc2c(C)nc3c(C(=O)NCCNC(C)=O)cnn3c2C)c1` [Example 8, N-[2-(Acetylamino)ethyl]-6-(3-methoxybenzyl)-5,7-dimethylpyrazolo-[1,5-a]pyrimidine-3-carboxamide], the IC50 is reported as 830 ± 240 nM.

`CCOCCCNC(=O)c1cnn2c(C)c(Cc3cccc(F)c3)c(C)nc12` [Example 24, N-(3-ethoxypropyl)-6-(3-fluorobenzyl)-5,7-dimethylpyrazolo[1,5-a]-pyrimidine-3-carboxamide] was tested, and the IC50 was 700 ± 110 nM.
